Assay results from US20060183221A1, “Method for neural differentiation of embryonic stem cells using protease passaging techniques” (priority 2003, published 2006).

Tests used:
[1] = tested on: Mouse neuroblastoma (F-11) cells; test: Induction of apoptosis in mouse neuroblastoma cells (Hoechst 33258 staining of condensed nuclei); assay type: cell-based; details: 24 hours
Experimental: Mouse neuroblastoma (F-11) cells were incubated for 24 hours in 0.1, 0.2, 0.5, or 1.0 μM of laurylgallate (Aldrich). Apoptosis was determined by punctate staining of condensed nuclei with Hoechst 33258 (Sigma, […] medium for 30 minutes at room temperature).

[2] = tested on: differentiating mouse ES cells (ES-J1); test: Apoptosis (TUNEL staining) in differentiating mouse ES cells incubated with ceramide analogs; assay type: cell-based; details: 15 hours with 75 μM S16 or S18, or 35 μM C2-ceramide
Experimental: In vitro neural differentiation of mouse ES cells (ES-J1, ES-D3) followed a serum deprivation protocol as described previously (Hancock, et al., 2000, Biochem. Biophys. Res. Commun. 271: 418-421). The differentiation stages are outlined in FIG. 2. Briefly, ES cells were grown on gamma-irradiated feeder fibroblasts for four days in Knockout DMEM/15% Knockout serum replacement, supplemented with ESGRO (LIF; Chemicon; Cat No. ESG1106) at a concentration of […] medium. ES cells were then grown for another four days on gelatin-coated bacterial culture dishes without a fibroblast feeder layer, and were then grown for three days in Knockout DMEM/15% heat-inactivated ES qualified Fetal Bovine Serum, supplemented with 10^3 units LIF per ml of medium. Upon trypsinization, ES cells were transferred to bacterial culture dishes without gelatin, and embryoid body (EB) formation was induced for four days in Knockout DMEM/10% heat-inactivated ES qualified FBS without LIF (EB4 stage). On the fifth day, floating and loosely attached EBs were rinsed off and transferred to tissue culture dishes. The EBs were allowed to attach to the tissue culture dish surface by incubation for another 24 hours in Knockout DMEM with 10% heat-inactivated ES qualified fetal bovine serum. Neural differentiation due to serum deprivation was induced by cultivation of the EBs for three days in DMEM/F12 (50/50), supplemented with 1×N2 (Invitrogen/Life Technologies; Cat No. 17502, dilution of 1: 100) but without serum (EB8 stage). Serum-deprived EBs were then trypsinized, plated on poly-L-ornithine/laminin-coated tissue culture dishes and grown for four days in DMEM/F12 (50/50), supplemented with N2 and 10 ng/ml FGF-2, but without serum. his incubation period is referred to as neuroprogenitor (NP) stage due to commitment of neuroepithelial precursor cells to neuroprogenitor cells. These cells have committed during the EB stages and were expanded during the NP stage. NPs grown for 48 hours upon replating of trypsinized EBs were referred to as the NP2 stage. On the fifth day of NP formation, the medium was changed to Neurobasal (Invitrogen/Life Technologies; Cat No. 21103-049), with 5% heat-inactivated FBS, and the cells were incubated for another seven days. During this time, NPs fully differentiate to glial cells and neurons. Cells cultured for 24 hours or 96 hours upon changing the medium were referred to as the D1 or D4 stage, respectively.
ES cells were cultured and differentiated to the EB4, EB8, NP2, or D4 stage following the protocol as described above. The ceramide analog S18 was dissolved in ethanol at a concentration of 100 mM and then added to the cells at a final concentration of 75 μM in medium. The cells at the EB8 stage were incubated for 48 hours in the presence of the ceramide analog and were then transplanted into mouse brains.
Differentiating ES cells were grown on cover slips and fixed with 4% paraformaldehyde in phosphate-buffered saline (PBS). Fixed cells were permeabilized with 0.5% Triton X-100 in PBS for 5 minutes at room temperature and unspecific binding sites were saturated by incubation with 3% ovalbumin in PBS for 1 hour at 37° C. The cover slips were then incubated with 5 μg/ml primary antibody (anti-ceramide clone 15B4 mouse IgM, Alexis; anti-PAR-4 rabbit IgG, Santa Cruz; anti-PCNA rabbit IgG, Santa Cruz; anti-nestin clone 401 rat IgG, BD Pharmingen) in 0.1% ovalbumin/PBS, followed by incubation with the appropriate fluorescence-labeled secondary antibody (5 μg/ml Alexa 546 conjugated anti-mouse IgG, Molecular Probes; Alexa 488 conjugated anti-rabbit IgG, Molecular Probes, Cy3 conjugated anti-mouse IgM, Jackson) for 2 hours at 37° C. The nuclei were stained by treatment with 2 μg/ml Hoechst 33258 in PBS for 30 minutes at room temperature. Apoptotic nuclei were stained using the fluorescein FragEL TUNEL assay (Oncogene) according to the manufacturer's instructions. […]

SSEA4 selected HESCs [3] = details: 4 ng/ml FGF2 and 100 μM proline
Experimental: Essentially serum free embryoid bodies were generated from bulk passaged monolayer HESC colonies as described in Example 6, in the presence of 4 ng/ml FGF2 and 100 μM Proline, or in 4 ng/ml FGF2 with MEDII conditioned medium as a positive control.
Serum free embryoid bodies were cultured in suspension for 17 days, and were cut into pieces and seeded onto polyornithine/laminin coated slides at day 10 or 17. The explants were cultured on slides for 5 days prior to fixation at day 15 or 22, for immunostaining with anti-βIII-Tubulin and anti-Tyrosine Hydroxylase antibodies.

SSEA4 selected HESCs [4] = test: Differentiation of SSEA4 selected HESCs as serum free embryoid bodies in differing media formulations (cytospin counts, immunostaining); assay type: cell-based, human; details: L-proline conditions
Experimental: Serum free embryoid bodies were cultured in suspension for 3 weeks. Morphological differences were apparent between the cultures. […] Serum free embryoid bodies were cultured in suspension, and were cut into pieces, seeded onto polyornithine/laminin coated slides at day 21 and fixed at day 25. […] This was indicative that this differentiation protocol utilizes an intrinsic neural differentiation capacity of HESC, rather than exogenous neural inducing factors.
Cytospins of disaggregated serum free embryoid bodies were performed at day 21 to enable the counting of the proportion of βIII-Tubulin or TH positive cells generated in the different media formulations. […]
To count proportions of neurons in serum free embryoid bodies, cytospins were immunostained with anti-βIII-Tubulin (Sigma, #T8660) or mouse anti-TH monoclonal antibodies (PeIFreez Biologicals, #P80101-0), detected with alexa-488 conjugated anti-mouse secondary antibody and nuclei were stained with DAPI. Two color fluorescent images were taken under 10× magnification and merged, and double positive signals were scored as neuronal cell bodies, or TH+ neuronal cell bodies against the total nuclei count. A minimum of three randomly sampled fields and 250 or 100 nuclei for βIII-Tubulin or TH, respectively, were counted for each condition. […]

SSEA4 selected HESCs [5] = tested on: SSEA4 selected HESCs
Source text: Essentially serum free embryoid bodies were generated from bulk passaged monolayer HESC colonies as described in Example 6, in the presence of the media set out below.

SSEA4 selected HESCs [6] = test: Neural differentiation of SSEA4 selected bulk passaged HESCs as serum free embryoid bodies with or without MEDII and S18, seeded and immunostained; assay type: cell-based, human
Experimental: Cultures were treated with or without 10 μM S18 from day 13 to day 17. After S18 treatment, serum free embryoid bodies were washed several times and cultured further until day 18. Serum free embryoid bodies were cut into pieces to seed down to polyornithine/laminin coated slides.
In the presence of MEDII, a consistently high proportion of the culture contained TH+ neurons, with the background of non-neural regions that was negative for the neuronal marker βIII-Tubulin typically lower than 10%. It was not determined whether the effect of MEDII induced more efficient neuralization or inhibited the generation of non-neural cell types. […] This proportion was determined by analysis of double staining of neural extensions for βIII-Tubulin and TH (FIG. 18), and overlaying Hoffman images with TH immunofluorescence (FIG. 19). The increase in the proportion of TH+ neurons in MEDII treated differentiations appeared to be due to the overall increase in neuronal differentiation, rather than an effect on the proportion of neurons that were dopaminergic, because the proportions of neurons that were TH+ in differentiations not exposed to MEDII was equally high. Another marker of DA cells, VMAT, was expressed in similarly high proportions of cells within the sfEBM cultures. TH+/VMAT−, TH−/VMAT+ and TH+/VMAT+ cells were observed (FIG. 20), possibly indicating temporal variability in the induction of expression of these markers prior to being co-expressed.

Molecule: CCCCCCCCCCCCOC(=O)c1cc(O)c(O)c(O)c1 [laurylgallate, n-dodecyl ester of 3,4,5-trihydroxybenzoic acid]
- cells undergoing apoptosis ([1]; 0.5 μM): 50%
- cells undergoing apoptosis ([1]; 1.0 μM): 100%

Molecule: CCCCCCCCCCCCCCCC(=O)NC(CO)CO [S16, N-(2-hydroxy-1-(hydroxymethyl)ethyl)-palmitoylamide]
- TUNEL stained cells ([2]; EB8 stage): 45±10%
- TUNEL stained cells ([2]; NP2 stage): 70±10%

Molecule: O=C(O)[C@@H]1CCCN1 [proline, L-proline]
- seeded EB pieces that did not exhibit large networks of βIII-Tubulin+ cells (SSEA4 selected HESCs [3]): less than 30%
- neurons generated that were dopaminergic (co-expressing βIII-Tubulin and TH) (SSEA4 selected HESCs [3]; day 22): greater than 90%
- TH+ neurons, of the cells in an embryoid body in suspension (SSEA4 selected HESCs [4]): greater than 50%
- maintained in a proliferative state after proliferation of neural rosette structures (SSEA4 selected HESCs [5]; 50 μM L-proline): 34 weeks
- maintained in a proliferative state in suspension culture after initial derivation (SSEA4 selected HESCs [5]; 50 μM L-proline): more than 7 weeks
- appearance of sfEBPs with low cell death and distinct neural rosette structures/folds (SSEA4 selected HESCs [5]; 50 μM Proline condition, around 3 weeks): noticeably enhanced

Molecule: FGF2: fibroblast growth factor 2
- area of seeded serum free embryoid body containing TH+ neurons (SSEA4 selected HESCs [6]; 10 μM S18 day 13 to 17, seeded day 18, fixed day 23): 30-70%
- proportion of neurons expressing TH (SSEA4 selected HESCs [6]; βIII-Tubulin/TH double staining, seeded day 18, fixed day 23): very high proportion

Molecule: CCCCCCCCCCCCC/C=C/[C@@H](O)[C@H](CO)NC(C)=O [C2-ceramide, N-acetyl sphingosine, reference compound]
- TUNEL stained cells ([2]; EB8 stage): 45±10%
- TUNEL stained cells ([2]; NP2 stage): 70±10%
